# Experimental data: US6821735B1, “Protein involved in abscisic acid signalling” (Plant BioScience Limited, priority 1997, dated 2004)
# “Also recorded” adds a separate entry of the source. Where two headings read alike, the source gives them in different places.
# How the values were obtained:
# [1] = system: outward-rectifying K^+ channels of guard cells; test: Guard cell voltage clamp: ABA response of the outward-rectifying K^+ current (IK,out); type: cell-based, Nicotiana
# [2] = system: inward-rectifying K^+ channels of guard cells; type: cell-based, N. benthamiana
# [3] = system: inward-rectifying K^+ currents of guard cells; type: cell-based, V. faba; conditions: after 300 s
# [4] = system: Xenopus Ca^2+-dependent Cl^− channels; test: ABA response of Xenopus oocytes injected with N. tabacum poly(A)+ RNA, two-electrode voltage clamp; type: cell-based, Xenopus laevis
# [5] = cited from earlier work
# [6] = system: anion current of guard cells; type: cell-based, N. benthamiana
# SYR transcript = test: Northern analysis of SYR expression in leaves of treated plants
# [7] = system: inward-rectifying K^+ channels of guard cells; conditions: stated as normal; cited from earlier work
# [8] = system: current endogenous to the oocytes; test: Uninjected oocytes in 25 mM K^+: effect of channel inhibitors; conditions: 25 mM K^+ in the bath
# [9] = system: oocyte endogenous voltage-dependent K^+ channels; test: Voltage clamp of oocytes expressing SYR: current characterization and channel inhibitors; type: cell-based, Xenopus laevis; design: highest maximum value of outward-rectifying current: unit not given here; conditions: for reduction of the current in SYR expressing oocytes: toxin in Ringer at Table 3 concentration (TEA 30 mM, niflumic acid 1 mM)
# [10] = Rabbit antisera raised against SYR peptides, tested by Western blot; type: in vivo; conditions: bleeds after injection
# Description: Both, the purchased (SP1) and the purified (SP2) peptides were injected, each into two rabbits at the UKC animal facilities (University of Kent, Canterbury). Blood sera were taken after four weeks and the rabbits were injected a second time, After a second bleed two to three weeks later, the rabbits were injected a third time and killed while collecting blood from the heart two weeks later. SDS—PAGE and Western Blotting
# Prior to hybridization with an antibody, the membrane was blocked with 1×TBS (0.15 M NaCl, 3 mM KCl, 25 mM Tris pH 7.4) and 5% Marvel (milk powder) for 1 h. Antibody hybridization occurred in the same buffer (1×TBS, 5% Marvel) plus 0.1% Tween and 0.1% azide overnight with a rabbit generated antibody with an estimated concentration of 1 ng/μl. The antibody solution was then poured off and stored in the fridge until needed again. The membrane was washed three times with 1×TBS and 0.1% Tween solution. […]
# H440 yeast strain = test: Complementation of yeast strain H440 (SSO1 and SSO2 deleted) on galactose deficient medium; conditions: H440(SYR) on galactose deficient medium
molecule,measurement,setting,value
"CC1=CC(=O)CC(C)(C)[C@@]1(O)/C=C/C(C)=C\C(=O)O [ABA, abscisic acid]",stimulation of the outward-rectifier current,"[1]; 20 M ABA, 10 mM K+ outside",~2 fold
same,inhibition of inward K^+ current in response to ABA,[2],about 40%
same,inward-rectifier current in ABA,[2],24 % of the control
same,mean IK.in ABA normalized for IK.in before ABA,[2]; n=5,46 % of the original current
same,"inhibition of IK,in by ABA",[3],~80%
same,time for complete decay of the ABA-stimulated current,"[4]; 20 μM ABA, mRNA injected oocyte",≤ 5 min
same,response to a second ABA application,[4]; 2 of the 3 ABA responsive cells,"In neither case, a second response was detected"
same,increase of steady-state current evoked by ABA,"[4]; at +60 mV, mRNA injected oocyte",> 3 μA
same,number of cells showing the ABA response,[4]; of a total of 5 mRNA injected cells tested,3 cells
same,maximum amplitude of outward-rectifying Cl^− current in response to ABA,[4]; oocytes injected with N. tabacum poly(A)+ RNA,3.1 μA
same,response of water injected oocytes,"[4]; water injected oocytes, n=8",did not respond
same,pKa,[5],4.8
same,effect of ABA on instantaneous anion current of a control cell,[6],four-fold increase
same,stimulation of the Cl^− current amplitude,[6],3 fold
same,"ABA induced increase of instantaneous anion current, mean, normalized to before ABA",[6]; n=3,3.5 fold
same,SYR transcript level in leaves,"SYR transcript; plants treated by spraying, ABA 20 μM, IAA 30 min",increased; also recorded: transient induction
same,time of highest amount of SYR transcript after beginning of treatment,"SYR transcript; second experiment, total RNA",30 min
same,inactivation of the inward-rectifying K+ channel current normally caused by ABA,[7],40-60%
[Ba+2] [Ba^2+],"effect on the current of uninjected oocytes, in words",[8],a time-dependent one arose
same,"effect on the current in SYR expressing oocytes, in words",[9],conversion of the instantaneous component into the time-dependent component
same,reversibility of the toxin effect,[9],Full recovery
"CC[N+](CC)(CC)CC [TEA, tetraethyl ammonium]","effect on the current of uninjected oocytes, in words",[8],invisible
same,reversibility of the toxin effect,[9]; after wash-out,reversible
same,reduction of the current in SYR expressing oocytes,[9],50%
O=C(O)c1cccnc1Nc1cccc(C(F)(F)F)c1 [niflumic acid],"effect on the current of uninjected oocytes, in words",[8],abolished
same,reversibility of the toxin effect,[9]; after wash-out,fully recovered
same,reduction of the current in SYR expressing oocytes,[9],~100%
CC(=O)[O-].[K+] [potassium acetate],induction of outward Cl^− currents by weak acid control,"[4]; 20 μM substituted for ABA, mRNA injected oocytes",no response was observed
ω-conotoxin,"effect on the current in SYR expressing oocytes, in words",[9],no effect was detected
"Sp2: truncated Nt-Syr protein, amino acids 1-279 of SEQ ID NO:2, N-His-tagged (protein, listed as Nicotiana tabacum, N-terminal His tag) MNDLFSGSFSRFRADDQSDSHAIEMGDITGGVNLDKFFEDVEAIKDELKGLEKIYSQLQSSHEKSKTLHNAKAVKDLRSNMDNDVSMALKKAKFIKVRLEALDRSNAANRSLPGCGPGSSSDRTRTSVVNGLRKKLQESMNQFNELRQKMASEYRETVQRRYYTVTGENPDEAVLDTLISTGQSETFLQKAIQEQGRGQVMDTVMEIQERHEAVKELERNLKELHQVFLDMAVLVESQGAQLDDIESQVNRANSFVRGGAQQLQVARKHQKNTRKWTCF",ABA sensitivity of outward-rectifying K+ current after Sp2 loading,"[1]; microelectrodes containing 20 or 100 µM Sp2, 20 µM ABA",complete loss of sensitivity to ABA
same,ABA sensitivity of inward-rectifying K+ current after Sp2 loading,[2],complete loss of sensitivity to ABA
same,recognition of the peptide by rabbit blood sera,[10],did cross-react with the peptide
"SYR: syntaxin-related protein of N. tabacum, 300 amino acids, SEQ ID NO:2 (protein, listed as Nicotiana tabacum) MNDLFSGSFSRFRADDQSDSHAIEMGDITGGVNLDKFFEDVEAIKDELKGLEKIYSQLQSSHEKSKTLHNAKAVKDLRSNMDNDVSMALKKAKFIKVRLEALDRSNAANRSLPGCGPGSSSDRTRTSVVNGLRKKLQESMNQFNELRQKMASEYRETVQRRYYTVTGENPDEAVLDTLISTGQSETFLQKAIQEQGRGQVMDTVMEIQERHEAVKELERNLKELHQVFLDMAVLVESQGAQLDDIESQVNRANSFVRGGAQQLQVARKHQKNTRKWTCFAIILLLIIILVVVLSIQPWKK",suppression of the SSO1/SSO2 mutation,H440 yeast strain,could not suppress this mutation
same,half time of increase in outward-rectifying current after impalement,"[9]; 50 ng cRNA injected, +60 mV",20 min
same,highest maximum value of outward-rectifying current,"[9]; 50 ng cRNA injected, +60 mV",3
same,reversal potential of the outward-rectifying current,[9]; [K^+]o 25 mM,around −35 mV
